According to patent publication US20050288488A1, “Ah receptor cDNA and genetically engineered cells for detecting agonists to the Ah receptor” (Northwestern University, priority 1993, published 2005):

Assays:
[1] = target: full-length human AHR (Homo sapiens, UniProt P35869, F659I); details: for activation of the AHR over background (β-galactosidase): yeast A303 AHR/ARNT/DRE system, average of at least three independent experiments
Description: S. cerevisiae strain A303 (Mata, ura3-52, trpIΔI, his3Δ200, leu2Δ1) was used as a host to transform the AHR, ARNT, and the lacZ reporter gene driven by two DREs. […] To construct the pCWhuAHR, the full-length human AHR was excised from plasmid phμAHR2, (See Dolwick, K. M., Schmidt, J. V., Carrer, L. A., Swanson, H. I., and Bradfield, C. A. (1993) Mol. Pharmacol. 44, 911-917), with XmaI and cloned into the corresponding site of pCW10. pY2ARNT was constructed by digesting plasmid pBM5/NEO-M1-1 with BamHI and subcloning the ARNT fragment into the corresponding site of the expression vector pYPGE2, a 2 μ, TRP1-marked plasmid containing a phosphoglycerate kinase promoter to drive expression. […] The reporter plasmid pDRE23-Z was constructed by first subcloning the HindIII/EcoRI fragment of pGEMLS3.2, (See Denison, M. S., Fisher, J. M., and Whitlock, J. P. J. (1988) Proc. Natl. Acad. Sci. U.S.A. 85, 2528-2532), containing DRE2-DRE3 into pBluescriptSK (Stratagene) to generate pSKDRE23. The DRE2-DRE3 fragment was subsequently amplified by polymerase chain reaction from pSKDRE23 using 50 pmol of primers OL146 (5′-[sequence]-3′ SEQUENCE ID NO. 24) and OL290 (5′-[sequence]-3′ SEQUENCE ID NO. 25) in a 50-μl reaction containing 200 μm each dNTP, 2 mM MgCl2 10 mm Tris, 50 mM KCl, 0.001% gelatin (w\v). The reaction was incubated at 95° C. for 5 minutes, then 72° C. for 5 minutes during which 2.5 units of Taq polymerases were added and the reaction continued at 95° C. (1 minute) then 50° C. (1 minute) and then 72° C. (1 minute) for 25 cycles.
Plasmids were sequentially transformed into the appropriate yeast strain by electroporation, (See Becker, D. M., and Guarente, L. (1991) Methods of Enzymol. 194, 182-187), or by a modified LiAc method (See Schiestl, R. H., and Giest, R. D. (1989) Curr. Genet. 16, 339-346). For electroporation, 100-500 ng of plasmid DNA was added to 50 μl or electrocompetent cells and incubated on ice for 5 minutes.

[2] = system: AHR; details: reported, Knutson and Poland (1981); read-out: AHR binding constants (KD values); cited from earlier work
[3] = target: T1, AHR-LexA chimera (UniProt P0A7C2+P30561); type: cell-based; details: for induction of lac Z activity over background: yeast GRS4 chimeric AHR-LexA system, average
T1 construct: expressed in transfected cells; host or cells: Saccharomyces cerevisiae strain GRS4 (with pTT8/hsp82) transformed with pEGAHRNΔ166 and pSH18-34
Description: Poon, D., Schroeder, S., Wang, C. […] Biol. 11, 4809-4821. […] (1 minute) then 50° C. (1 minute) and then 72° C. (1 minute) for 25 cycles.
β-Galactosidase assays carried out on the AHR-LexANΔ166 chimera system were performed as above except for the following changes. Yeast strains were grown from a single colony overnight at 30° C. in 2 ml of selection medium containing either 2% glucose or 2% galactose as a carbon source. Fifty microliters of this primary culture was used to inoculate a 1-ml culture of the same media containing appropriate concentrations of agonist dissolved in Me2SO. The culture was grown for 16-18 hours with vigorous shaking at room temperature. β-Galactosidase activity was determined by adding a 50-μl aliquot of the cultures to 650 μl of Z-buffer, permeabilizing the cells, and incubating with ONPG at 30° C. for 30 minutes. β-Galactosidase units were determined using the following formula: (A420)/(A600 of 1/10 dilution of cells×volume of culture×length of incubation))×1000.
As described above, strain GRS4 was transformed with a AHR-LexAN 166 fusion plasmid, pEGAHRNΔ166 containing the chimeric Ah receptor and a LexA operator reporter plasmid pSH18-34. In this system, expression of the reporter gene was dependent on pEGAHRNΔ166 expresson and on the presence of agonist. […] The dose-response curves obtained from this chimeric receptor system closely paralleled those of the complete AHR/ARNT/DRE pathway expressed in A303 cells.

[4] = target: T2, murine Ah-receptor (Mus musculus, UniProt P30561); assay: photoaffinity labeling with [125I]-2-azido-3-iodo-7,8-dibromodibenzo-p-dioxin, competition by agonist; type: binding; details: excess of β-naphthoflavone; murine cDNA expressed in COS-1 cells, cytosolic fraction
T2 construct: The resulting full length murine Ah-receptor clone was then subcloned into the SpeI and HindIII sites of pSV-Sport1; expressed in transfected cells; host or cells: COS-1 cells electroporated with pmuAhR (cytosol); also in vitro translation in TNT rabbit reticulocyte lysate (Promega)
T2 sequence (P30561 10-805 S74T/M324I/F348L/P471L/N533S/M589L/T758A limits assumed): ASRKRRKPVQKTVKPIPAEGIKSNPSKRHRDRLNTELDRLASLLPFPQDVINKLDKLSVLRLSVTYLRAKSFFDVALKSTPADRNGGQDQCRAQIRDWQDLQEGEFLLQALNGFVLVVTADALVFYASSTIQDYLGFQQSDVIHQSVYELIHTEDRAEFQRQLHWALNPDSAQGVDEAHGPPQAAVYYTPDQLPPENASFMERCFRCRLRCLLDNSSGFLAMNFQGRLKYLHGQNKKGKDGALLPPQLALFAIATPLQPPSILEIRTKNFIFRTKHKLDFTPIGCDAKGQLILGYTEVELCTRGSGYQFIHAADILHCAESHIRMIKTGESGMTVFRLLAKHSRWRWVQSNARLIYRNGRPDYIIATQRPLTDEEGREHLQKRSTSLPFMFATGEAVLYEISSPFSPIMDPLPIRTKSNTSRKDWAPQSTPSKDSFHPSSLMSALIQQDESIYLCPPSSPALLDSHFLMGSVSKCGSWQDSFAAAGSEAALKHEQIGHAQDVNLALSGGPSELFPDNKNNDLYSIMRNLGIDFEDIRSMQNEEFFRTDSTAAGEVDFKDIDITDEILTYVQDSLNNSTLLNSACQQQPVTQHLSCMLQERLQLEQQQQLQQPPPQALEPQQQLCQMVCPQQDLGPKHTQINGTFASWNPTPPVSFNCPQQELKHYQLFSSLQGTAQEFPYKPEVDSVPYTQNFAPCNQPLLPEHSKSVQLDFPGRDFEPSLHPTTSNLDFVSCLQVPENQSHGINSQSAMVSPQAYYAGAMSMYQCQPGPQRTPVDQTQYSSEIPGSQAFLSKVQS
Description: (§1) Photoaffinity labeling using the ligand, [^125I]-2-azido-3-iodo-7,8-dibromodibenzo-p-dioxin (specific activity=0.5 μCiμl), was carried out in 50 μl reactions in MENG buffer. Samples were incubated with 0.25 μCi of ligand (0.1 pmoles) ±100 nM β-naphthoflavone 30 minutes at room temperature, cooled on ice and incubated with one fifth of charcoal/gelatin (3%/0.3% w/v) for 30 minutes on ice. The charocal/gelatin was subjected to centrifugation at 14,000 rpm for 5 minutes at 4° C. and the supernatant was irradiated with ultraviolet light at 0.8 J/cm2 followed by addition of 300 mM β-mercaptoethanol. Acetone precipitates were resuspended in 1×Laemmli sample buffer and subjected to 7.5% SDS-PAGE and autoradiograph as described in Sambrook, J., Fritsch, E. F., Maniatis, T., Molecular Cloning: A Laboratory Manual/second edition (Cold Spring Harbor Laboratory Press, 1989).
(§2) Photoaffinity labeling of murine (muAhR) and human (huAhR) Ah-receptors expressed in COS-1 cells. […]
(§3) Experiments were carried out using the TNT Coupled Reticulocyte Lysate System (PROMEGA). […] The efficiency of expression was analyzed in parallel experiments utilizing ^35S-methionine labeling and autoradiography and Western blot analysis using affinity-purified goat antibody raised against an N-terminal peptide derived from the murine Ah-receptor. […]

[5] = target: T3, human Ah-receptor (Homo sapiens, UniProt P35869, F659I); assay: as above; type: binding; details: excess of β-naphthoflavone; human cDNA expressed in COS-1 cells, cytosolic fraction
T3 construct: 102 nucleotides downstream of the stop codon of the full length human Ah-receptor cDNA clone; expressed in transfected cells; host or cells: COS-1 cells electroporated with phuAhR (cytosol, 10 mM molybdate); also in vitro translation in TNT rabbit reticulocyte lysate (Promega)
T3 sequence (P35869 11-848 F659I): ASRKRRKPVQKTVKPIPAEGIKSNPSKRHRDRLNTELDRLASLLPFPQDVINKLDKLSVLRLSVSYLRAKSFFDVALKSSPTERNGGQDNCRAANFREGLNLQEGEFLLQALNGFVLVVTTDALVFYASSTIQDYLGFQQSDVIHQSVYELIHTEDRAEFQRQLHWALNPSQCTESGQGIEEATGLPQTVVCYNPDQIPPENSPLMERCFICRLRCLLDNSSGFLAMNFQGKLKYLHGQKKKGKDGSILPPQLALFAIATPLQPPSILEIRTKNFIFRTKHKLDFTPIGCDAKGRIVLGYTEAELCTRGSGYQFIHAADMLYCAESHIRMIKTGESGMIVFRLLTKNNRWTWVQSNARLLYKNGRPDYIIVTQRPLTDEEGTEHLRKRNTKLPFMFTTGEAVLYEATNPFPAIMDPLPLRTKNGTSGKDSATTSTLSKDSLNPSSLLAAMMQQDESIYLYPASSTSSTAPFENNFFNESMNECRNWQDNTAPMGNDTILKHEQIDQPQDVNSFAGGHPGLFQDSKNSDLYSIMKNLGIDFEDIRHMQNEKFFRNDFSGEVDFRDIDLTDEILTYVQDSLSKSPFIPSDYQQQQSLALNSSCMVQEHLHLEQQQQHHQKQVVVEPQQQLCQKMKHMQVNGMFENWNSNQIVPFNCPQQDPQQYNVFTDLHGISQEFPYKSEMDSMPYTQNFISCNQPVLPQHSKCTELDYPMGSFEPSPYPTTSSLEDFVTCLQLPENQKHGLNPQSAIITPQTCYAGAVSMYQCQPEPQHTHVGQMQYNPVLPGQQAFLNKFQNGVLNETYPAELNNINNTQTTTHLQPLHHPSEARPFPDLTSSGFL
Description: as §1, §2, §3

full-length human AHR, sequence (P27540 1-774 isoform P27540-2 partner, one chain of several): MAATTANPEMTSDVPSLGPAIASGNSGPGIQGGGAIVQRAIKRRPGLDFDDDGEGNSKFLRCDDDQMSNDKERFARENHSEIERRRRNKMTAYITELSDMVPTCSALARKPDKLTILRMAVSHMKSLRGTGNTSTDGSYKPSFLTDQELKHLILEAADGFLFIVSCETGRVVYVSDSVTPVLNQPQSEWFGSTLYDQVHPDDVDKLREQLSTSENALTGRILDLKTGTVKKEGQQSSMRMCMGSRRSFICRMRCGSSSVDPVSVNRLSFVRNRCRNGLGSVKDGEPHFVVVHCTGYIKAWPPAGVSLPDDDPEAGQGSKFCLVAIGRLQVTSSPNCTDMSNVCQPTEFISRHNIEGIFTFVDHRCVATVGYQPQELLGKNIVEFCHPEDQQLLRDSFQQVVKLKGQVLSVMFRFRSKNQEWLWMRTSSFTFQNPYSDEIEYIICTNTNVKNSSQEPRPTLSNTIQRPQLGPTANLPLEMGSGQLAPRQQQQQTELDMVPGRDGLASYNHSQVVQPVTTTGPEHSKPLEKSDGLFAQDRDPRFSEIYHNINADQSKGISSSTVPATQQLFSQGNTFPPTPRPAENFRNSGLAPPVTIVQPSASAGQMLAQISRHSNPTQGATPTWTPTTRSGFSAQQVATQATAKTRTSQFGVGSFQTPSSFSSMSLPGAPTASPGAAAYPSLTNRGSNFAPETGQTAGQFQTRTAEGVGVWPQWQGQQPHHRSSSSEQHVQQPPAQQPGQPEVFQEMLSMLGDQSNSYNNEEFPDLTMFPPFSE
T1 sequence (P0A7C2+P30561 fused with the stated changes): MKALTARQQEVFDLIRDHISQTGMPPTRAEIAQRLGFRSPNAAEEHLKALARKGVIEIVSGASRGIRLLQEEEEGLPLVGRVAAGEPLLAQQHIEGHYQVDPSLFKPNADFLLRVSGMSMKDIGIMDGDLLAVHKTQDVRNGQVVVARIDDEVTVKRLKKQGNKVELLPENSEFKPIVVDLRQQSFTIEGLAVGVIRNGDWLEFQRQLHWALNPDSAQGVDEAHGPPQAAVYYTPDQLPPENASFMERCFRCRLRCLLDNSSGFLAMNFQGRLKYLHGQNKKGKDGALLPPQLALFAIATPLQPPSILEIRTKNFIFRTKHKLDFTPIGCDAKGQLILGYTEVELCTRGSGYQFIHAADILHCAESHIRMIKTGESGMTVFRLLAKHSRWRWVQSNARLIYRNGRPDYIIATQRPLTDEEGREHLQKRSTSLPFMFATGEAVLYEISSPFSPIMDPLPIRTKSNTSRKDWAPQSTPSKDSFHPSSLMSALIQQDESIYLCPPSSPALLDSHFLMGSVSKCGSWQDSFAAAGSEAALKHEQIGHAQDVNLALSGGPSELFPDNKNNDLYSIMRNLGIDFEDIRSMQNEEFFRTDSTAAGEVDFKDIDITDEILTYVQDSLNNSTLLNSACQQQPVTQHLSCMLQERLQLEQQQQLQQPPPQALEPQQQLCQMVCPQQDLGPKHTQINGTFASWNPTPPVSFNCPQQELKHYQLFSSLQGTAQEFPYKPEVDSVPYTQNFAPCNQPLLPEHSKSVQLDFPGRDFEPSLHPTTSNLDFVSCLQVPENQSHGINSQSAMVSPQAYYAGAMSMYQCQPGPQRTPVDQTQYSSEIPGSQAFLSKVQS

O=c1cc(-c2ccccc2)oc2c1ccc1ccccc12 [αNF, α-naphthoflavone]
EC50 [1]: 800 nM
activation of the AHR over background (β-galactosidase) [1]: 12 fold
Kd [2]: 29 nM
induction of lac Z activity over background [3]: 90 fold

O=c1cc(-c2ccccc2)oc2ccc3ccccc3c12 [βNF, β-naphthoflavone]
EC50 [1]: 79 nM
activation of the AHR over background (β-galactosidase) [1]: 12 fold
induction of lac Z activity over background [3]: 90 fold
EC50 ([3]; yeast GRS4 with pEGAHRNΔ166 and pSH18-34, agonist 16-18 hours, read-out: EC50 (LexA operator lacZ reporter)): 61 nM
inhibition of photoaffinity labeling of the receptor [4]: inhibited the labeling of the receptors
inhibition of photoaffinity labeling of the receptor [5]: inhibited the labeling of the receptors
